Assay results published in article PMC6366420, “Design and synthesis of 4-piperazinyl quinoline derived urea/thioureas for anti-breast cancer activity by a hybrid pharmacophore approach” (Journal of Enzyme Inhibition and Medicinal Chemistry, 2019).
Read-outs that look alike come from different tables or passages of the source. Blank lines part the entries; values can stand above or below the compound they belong to.

Legend:
MCF10A = assay: SRB antiproliferative assay, MCF10A non-cancer breast cells; type: cell-based, human; details: read-out: GI50 MCF10A
Protocol: (§1) The human breast cancer cell lines MDA-MB468, MDA-MB231 and MCF-7 were purchased from ATCC and maintained in RPMI 1640 medium supplemented with 10% fetal bovine serum (Hyclone, Logan UT) and 2 mM L-glutamine. MCF10A and 184B5 immortalised breast cells were purchased from ATCC and maintained in mammary epithelial basal medium supplemented with an MEGM mammary epithelial singlequot kit (Cambrex). Cells were grown at 37 °C with 5% CO2, 95% air under the humidified conditions. Cell line authentication was carried out by Genetica DNA Laboratories (Burlington, NC) using a short tandem repeat profiling method (March 2015; July 2015; September 2016).
(§2) Cell cytotoxic effects were determined by a SRB-based protocol[2]^,[25].
(§3) The newly synthesised 4-piperazinylquinoline compounds (5–30) were evaluated for their antiproliferative effects using three breast cancer cell lines, for which the compounds were diluted to achieve seven different concentrations ranging from […]. Followed by 48 h incubation with the compound, cells were treated with sulforhodamine B (SRB) to measure their growth/viability (% of the untreated control) by spectrophotometer. The total cellular macromolecules levels known to accurately reflect by UV reading of SRB staining. […] The reference compounds CQ and cisplatin were included for the comparison.
(§4) We further assessed their antiproliferative effects on two non-cancer immortalised cell lines (184B5 and MCF10A). […] The antiproliferative effects of compound 23 on cancer cells are thus 7-fold (MDA-MB468 vs MCF10A) to 11-fold (MDA-MB231 vs 184B5) higher than matching non-cancer breast cells, which may indicate that compound 23 could potentially be safer than other compounds. Therefore, we examined it further to gain insights into its molecular mechanism of action.

184B5 = assay: SRB antiproliferative assay, 184B5 non-cancer breast cells; type: cell-based, human; details: read-out: GI50 184B5
Protocol: as §1, §2, §3, §4

MDA-MB468 = assay: SRB antiproliferative assay, MDA-MB468; type: cell-based, human; details: read-out: GI50 MDA-MB468
Protocol: as §1, §2, §3

MCF7 = assay: SRB antiproliferative assay, MCF7; type: cell-based, human; details: read-out: GI50 MCF7
Protocol: as §1, §2, §3

MDA-MB231 = assay: SRB antiproliferative assay, MDA-MB231; type: cell-based, human; details: read-out: GI50 MDA-MB231
Protocol: as §1, §2, §3

[1] = tested on: breast cancer and non-cancer breast cell lines; assay: SRB antiproliferative comparison of breast cancer and non-cancer breast cell lines; type: cell-based, human; details: for higher activity than the reference compounds cisplatin and CQ: breast cancer cell lines, GI50 comparison; for antigrowth effect against cancer versus non-cancer cells (in words): three breast cancer lines vs 184B5 and MCF10A
Protocol: as §1, §2, §3, §4

[2] = Homo sapiens, MCF-10A, SRB, 48 h incubation, MCF10A non-cancer immortalised breast cells
[3] = Homo sapiens, SRB, 48 h incubation, 184B5 non-cancer immortalised breast cells
[4] = Homo sapiens, MDA-MB-468, 48 h, SRB, 48 h incubation, MDA-MB468 breast cancer cells
[5] = Homo sapiens, SRB, 48 h incubation, MCF7 breast cancer cells
[6] = Homo sapiens, MDA-MB-231, 48 h, SRB, 48 h incubation, MDA-MB231 triple-negative breast cancer cells

GI50 (MDA-MB468; [4]): 21.7 ± 1 µM | melting point: 108 to 109 °C | GI50 (MCF7; [5]): 22.5 ± 1.4 µM | GI50 (MDA-MB231; [6]): 39.6 ± 2.1 µM
SMILES: Cc1ccc(C)c(NC(=O)N2CCN(c3ccnc4cc(C(F)(F)F)ccc34)CC2)c1 [Compound 12, 4-(7-Trifluoromethyl-quinolin-4-yl)-piperazine-1-carboxylic acid (2,5-dimethyl-phenyl)-amide]
antigrowth effect against cancer versus non-cancer cells (in words) [1]: higher activity against non-cancer cells than cancer cells | GI50 (MCF10A; [2]): 8.8 ± 0.9 µM | GI50 (184B5; [3]): 7.6 ± 0.7 µM

GI50 (MDA-MB468; [4]): 2.7 ± 0.1 µM | melting point: 154 to 155 °C | GI50 (MCF7; [5]): 2 ± 0.1 µM | GI50 (MDA-MB231; [6]): 15.3 ± 1.3 µM
SMILES: O=C(Nc1ccc(C(F)(F)F)cc1)N1CCN(c2ccnc3cc(C(F)(F)F)ccc23)CC1 [Compound 13, 4-(7-Trifluoromethyl-quinolin-4-yl)-piperazine-1-carboxylic acid (4-trifluoromethyl-phenyl)-amide]
antigrowth effect against cancer versus non-cancer cells (in words) [1]: higher activity against non-cancer cells than cancer cells | GI50 (MCF10A; [2]): 1 ± 0.1 µM | GI50 (184B5; [3]): 1.1 ± 0.1 µM

GI50 (MDA-MB468; [4]): 22.5 ± 0.2 µM | melting point: 142 to 143 °C | GI50 (MCF7; [5]): 12.6 ± 1.2 µM | GI50 (MDA-MB231; [6]): 21.1 ± 1.3 µM
SMILES: O=C(Nc1c(Cl)cc(Cl)cc1Cl)N1CCN(c2ccnc3cc(C(F)(F)F)ccc23)CC1 [Compound 14, 4-(7-Trifluoromethyl-quinolin-4-yl)-piperazine-1-carboxylic acid (2,4,6-trichloro-phenyl)-amide]
antigrowth effect against cancer versus non-cancer cells (in words) [1]: comparable against cancer and non-cancer cells | GI50 (MCF10A; [2]): 17.4 ± 0.5 µM | GI50 (184B5; [3]): 33.2 ± 2.1 µM

GI50 (MDA-MB468; [4]): 9.6 ± 0.9 µM | melting point: 127 to 128 °C | GI50 (MCF7; [5]): 7.5 ± 0.6 µM | GI50 (MDA-MB231; [6]): 17.8 ± 1 µM
SMILES: O=C(Nc1cccc2ccccc12)N1CCN(c2ccnc3cc(C(F)(F)F)ccc23)CC1 [Compound 15, 4-(7-Trifluoromethyl-quinolin-4-yl)-piperazine-1-carboxylic acid naphthalen-1-ylamide]
antigrowth effect against cancer versus non-cancer cells (in words) [1]: comparable against cancer and non-cancer cells | GI50 (MCF10A; [2]): 11.1 ± 0.9 µM | GI50 (184B5; [3]): 27.9 ± 1.7 µM

GI50 (MDA-MB468; [4]): 12.7 ± 0.5 µM | melting point: 132 to 133 °C | GI50 (MCF7; [5]): 4.9 ± 0.3 µM | GI50 (MDA-MB231; [6]): 20.8 ± 2.3 µM
SMILES: O=C(NC1CCCCC1)N1CCN(c2ccnc3cc(C(F)(F)F)ccc23)CC1 [Compound 16, 4-(7-Trifluoromethyl-quinolin-4-yl)-piperazine-1-carboxylic acid cyclohexylamide]
antigrowth effect against cancer versus non-cancer cells (in words) [1]: comparable against cancer and non-cancer cells | GI50 (MCF10A; [2]): 20.9 ± 1 µM | GI50 (184B5; [3]): 20.8 ± 1.4 µM

GI50 (MDA-MB468; [4]): 11.8 ± 0.6 µM | melting point: 171 to 172 °C | GI50 (MCF7; [5]): 4.9 ± 0.3 µM | GI50 (MDA-MB231; [6]): 4.8 ± 0.2 µM
SMILES: S=C(Nc1ccccc1)N1CCN(c2ccnc3cc(Cl)ccc23)CC1 [Compound 17, 4-(7-Chloro-quinolin-4-yl)-piperazine-1-carbothioic acid phenylamide]
antigrowth effect against cancer versus non-cancer cells (in words) [1]: much stronger activities against cancer than non-cancer cells | GI50 (MCF10A; [2]): 13.9 ± 1.3 µM | GI50 (184B5; [3]): 19.2 ± 1.6 µM

GI50 (MDA-MB468; [4]): 7.8 ± 0.8 µM | melting point: 138 to 139 °C | GI50 (MCF7; [5]): 7.3 ± 0.5 µM | GI50 (MDA-MB231; [6]): 9.6 ± 0.5 µM
SMILES: Cc1cccc(C)c1NC(=S)N1CCN(c2ccnc3cc(Cl)ccc23)CC1 [Compound 18, 4-(7-Chloro-quinolin-4-yl)-piperazine-1-carbothioic acid (2,6-dimethyl-phenyl)-amide]
antigrowth effect against cancer versus non-cancer cells (in words) [1]: much stronger activities against cancer than non-cancer cells | GI50 (MCF10A; [2]): 52.3 ± 2.9 µM | GI50 (184B5; [3]): 16.7 ± 1 µM

Further lines, the compound ahead of its results:

SMILES: CCN(CC)CCCC(C)Nc1ccnc2cc(Cl)ccc12 (stereo not shown) [CQ, Chloroquine, reference compound]
GI50 (MCF10A; Homo sapiens, MCF-10A, 48 h): 81.3 ± 1.4 µM | GI50 (184B5; Homo sapiens, 184B5, 48 h): 76.1 ± 0.2 µM | GI50 (MDA-MB468; Homo sapiens, MDA-MB-468, 48 h): 28.6 ± 0.2 µM | GI50 (MCF7; Homo sapiens, MCF7, 48 h): 38.4 ± 0.3 µM | GI50 (MDA-MB231; Homo sapiens, MDA-MB-231, 48 h): 22.5 ± 1.4 µM

SMILES: N.N.[Cl][Pt][Cl] [Cisplatin, reference compound]
GI50 (MCF10A; SRB, 48 h incubation, MCF10A non-cancer immortalised breast cells): 51.5 ± 0.6 µM | GI50 (184B5; SRB, 48 h incubation, 184B5 non-cancer immortalised breast cells): 25.5 ± 0.6 µM | GI50 (MDA-MB468; SRB, 48 h incubation, MDA-MB468 breast cancer cells): 31 ± 0.3 µM | GI50 (MCF7; SRB, 48 h incubation, MCF7 breast cancer cells): 25.8 ± 0.7 µM | GI50 (MDA-MB231; SRB, 48 h incubation, MDA-MB231 triple-negative breast cancer cells): 23.6 ± 0.2 µM

SMILES: O=C(Nc1ccccc1)N1CCN(c2ccnc3cc(Cl)ccc23)CC1 [Compound 5, 4-(7-Chloro-quinolin-4-yl)-piperazine-1-carboxylic acid phenylamide]
higher activity than the reference compounds cisplatin and CQ [1]: 4-8 fold | antigrowth effect against cancer versus non-cancer cells (in words) [1]: much stronger activities against cancer than non-cancer cells | GI50 (MCF10A; [2]): 11.8 ± 1.4 µM | GI50 (184B5; [3]): 14.1 ± 0.9 µM | GI50 (MDA-MB468; [4]): 4.7 ± 0.5 µM | melting point: 142 to 143 °C | GI50 (MCF7; [5]): 6.6 ± 0.6 µM | GI50 (MDA-MB231; [6]): 5.3 ± 0.5 µM

SMILES: Cc1ccc(C)c(NC(=O)N2CCN(c3ccnc4cc(Cl)ccc34)CC2)c1 [Compound 6, 4-(7-Chloro-quinolin-4-yl)-piperazine-1-carboxylic acid (2,5-dimethyl-phenyl)-amide]
antigrowth effect against cancer versus non-cancer cells (in words) [1]: higher activity against non-cancer cells than cancer cells | GI50 (MCF10A; [2]): 18.8 ± 1.3 µM | GI50 (184B5; [3]): 19.8 ± 1 µM | GI50 (MDA-MB468; [4]): 35.5 ± 1.3 µM | melting point: 118 to 119 °C | GI50 (MCF7; [5]): 28.9 ± 1.4 µM | GI50 (MDA-MB231; [6]): 50.6 ± 3.2 µM

SMILES: O=C(Nc1ccc(C(F)(F)F)cc1)N1CCN(c2ccnc3cc(Cl)ccc23)CC1 [Compound 7, 4-(7-Chloro-quinolin-4-yl)-piperazine-1-carboxylic acid (4-trifluoromethyl-phenyl)-amide]
antigrowth effect against cancer versus non-cancer cells (in words) [1]: higher activity against non-cancer cells than cancer cells | GI50 (MCF10A; [2]): 4.6 ± 0.3 µM | GI50 (184B5; [3]): 4.7 ± 0.3 µM | GI50 (MDA-MB468; [4]): 19.8 ± 0.8 µM | GI50 (MCF7; [5]): 16.6 ± 1.2 µM | GI50 (MDA-MB231; [6]): 21.8 ± 1.5 µM

SMILES: O=C(Nc1c(Cl)cc(Cl)cc1Cl)N1CCN(c2ccnc3cc(Cl)ccc23)CC1 [Compound 8, 4-(7-Chloro-quinolin-4-yl)-piperazine-1-carboxylic acid (2,4,6-trichloro-phenyl)-amide]
antigrowth effect against cancer versus non-cancer cells (in words) [1]: comparable against cancer and non-cancer cells | GI50 (MCF10A; [2]): 23.7 ± 1 µM | GI50 (184B5; [3]): 22.3 ± 1.7 µM | GI50 (MDA-MB468; [4]): 30.4 ± 2 µM | melting point: 168 to 169 °C | GI50 (MCF7; [5]): 23.7 ± 2.4 µM | GI50 (MDA-MB231; [6]): 29.1 ± 1.7 µM

SMILES: O=C(Nc1cccc2ccccc12)N1CCN(c2ccnc3cc(Cl)ccc23)CC1 [Compound 9, 4-(7-Chloro-quinolin-4-yl)-piperazine-1-carboxylic acid naphthalen-1-ylamide]
higher activity than the reference compounds cisplatin and CQ [1]: 4-8 fold | antigrowth effect against cancer versus non-cancer cells (in words) [1]: much stronger activities against cancer than non-cancer cells | GI50 (MCF10A; [2]): 21.8 ± 1 µM | GI50 (184B5; [3]): 21.8 ± 1 µM | GI50 (MDA-MB468; [4]): 7.1 µM | melting point: 138 to 139 °C | GI50 (MCF7; [5]): 9.4 ± 0.8 µM | GI50 (MDA-MB231; [6]): 9.1 ± 1 µM

SMILES: O=C(NC1CCCCC1)N1CCN(c2ccnc3cc(Cl)ccc23)CC1 [Compound 10, 4-(7-Chloro-quinolin-4-yl)-piperazine-1-carboxylic acid cyclohexylamide]
antigrowth effect against cancer versus non-cancer cells (in words) [1]: comparable against cancer and non-cancer cells | GI50 (MCF10A; [2]): 15.7 ± 1.3 µM | GI50 (184B5; [3]): 16.3 ± 1 µM | GI50 (MDA-MB468; [4]): 10.9 ± 0.8 µM | melting point: 112 to 113 °C | GI50 (MCF7; [5]): 6 ± 0.5 µM | GI50 (MDA-MB231; [6]): 20.8 ± 1.3 µM

SMILES: O=C(Nc1ccccc1)N1CCN(c2ccnc3cc(C(F)(F)F)ccc23)CC1 [Compound 11, 4-(7-Trifluoromethyl-quinolin-4-yl)-piperazine-1-carboxylic acid phenylamide]
antigrowth effect against cancer versus non-cancer cells (in words) [1]: comparable against cancer and non-cancer cells | GI50 (MCF10A; [2]): 21.1 ± 1.6 µM | GI50 (184B5; [3]): 12.2 ± 1.3 µM | GI50 (MDA-MB468; [4]): 57.6 ± 3.2 µM | melting point: 146 to 147 °C | GI50 (MCF7; [5]): 11 ± 0.6 µM | GI50 (MDA-MB231; [6]): 20.6 ± 1.4 µM
